Each structure is given as a SMILES string.

Sequence of Ba/F3_KRAS^G12D cells (P01116 whole entry G12D): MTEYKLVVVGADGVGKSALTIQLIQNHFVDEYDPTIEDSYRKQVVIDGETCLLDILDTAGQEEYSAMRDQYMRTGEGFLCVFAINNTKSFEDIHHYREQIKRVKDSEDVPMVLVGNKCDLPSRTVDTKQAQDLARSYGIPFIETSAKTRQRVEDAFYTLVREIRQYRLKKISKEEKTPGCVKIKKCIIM

This assay addresses Ba/F3_KRAS^G12D cells (Homo sapiens, UniProt P01116, G12D, cells depend on it). The assay is described as follows: Ba/F3 KRAS^G12D cell proliferation assay (cell-titer Glo). The assay is classed as cell-based. Particulars: cell growth inhibition, treated with the compounds for 3 days, read-out: BaF3_KRAS^G12D IC50. The method, then: Cells were seeded at a density of 5×10^3 per well into 96-well plate and incubated overnight. Serial diluted compounds were added to each well. Cells were treated with the compounds for 3 days, after which cell-titer Glo reagent (Promega #G7572) was used to assess cell proliferation. The luminescence signal was then collected on Tecan Spark plate reader. […] Cell growth inhibition of IC50 is calculated with the equation of Y=Bottom+(Top−Bottom)/(1+10^((LogIC50−X)*HillSlope))
In the case of `C#Cc1c(F)ccc2cc(O)cc(-c3nc(OC(C)C)c4c(N5CC6CCC(C5)N6)nc(OC)nc4c3F)c12` [Compound 191], the GI50 was less than 500 nM.

On to `CCc1c(F)ccc2cc(O)cc(-c3nc(OC)c4c(N5CC6CCC(C5)N6)nc(OC[C@]56CCCN5[C@@H](COC(=O)N(C)C)CC6)nc4c3F)c12` [Compound 215], for which the GI50 was less than 500 nM.

Consider `C#Cc1c(F)ccc2cc(O)cc(-c3nc(OC)c4c(N5CC6CCC(C5)N6)nc(OCC5(CN6CCN(C(=O)CCCCCCCCCCCCCCC)CC6)CC5)nc4c3F)c12` [Compound 224], for which the GI50 was less than 500 nM.

`C#Cc1c(F)ccc2cc(O)cc(-c3nc(OC)c4c(N5CC6CCC(C5)N6)nc(OCC5(CN6CCOCC6)CC5)nc4c3F)c12` [Compound 185]: the GI50 is less than 500 nM.

For the compound `C#Cc1c(F)ccc2cc(O)cc(-c3nc(OC(C)C)c4c(N5CC6CCC(C5)N6)nc(C)nc4c3F)c12` [Compound 218], the GI50 was less than 500 nM.

For `Cc1nc(-c2cc(O)cc3ccc(F)c(OC(F)F)c23)c(F)c2nc(OC[C@@]34CCCN3C[C@H](F)C4)nc(N3CC4CCC(C3)N4)c12` [Compound 144], the GI50 is less than 500 nM.

For the compound `CCOc1nc(-c2cccc3ccc(F)c(CC)c23)c(F)c2nc(OC[C@]34CCCN3[C@@H](COC(=O)N(C)C)CC4)nc(N3CC4CCC(C3)N4)c12` [Compound 237], the GI50 was less than 500 nM.

`CC#Cc1c(F)ccc2cc(O)cc(-c3nc(OC)c4c(N5CC6CCC(C5)N6)nc(OC[C@@]56CCCN5C[C@H](F)C6)nc4c3F)c12` [Compound 146]: the GI50 was less than 500 nM.

In the case of `C#Cc1c(F)ccc2cc(O)cc(-c3nc(OCC)c4c(N5CC6CCC(C5)N6)ncnc4c3F)c12` [Compound 221], the GI50 was less than 500 nM.

On to `C#Cc1c(F)ccc2cc(O)cc(-c3nc(O)c4c(N5CC6CCC(C5)N6)nc(OC[C@]56CCCN5[C@@H](COC(=O)N(C)C)CC6)nc4c3F)c12` [Compound 239], for which the GI50 was 500 to 5000 nM.

Take `C#Cc1c(F)ccc2cccc(-c3nc(O)c4c(N5CC6CCC(C5)N6)nc(OC[C@@]56CCCN5C[C@H](F)C6)nc4c3F)c12` [Compound 154]: the GI50 fell in the range of 500 to 5000 nM.

In the case of `C#Cc1c(F)ccc2cc(O)cc(-c3nc(OC(C)C)c4c(N5CC6CCC(C5)N6)nc(OCC5(CN6CCN(C)CC6)CC5)nc4c3F)c12` [Compound 230], the GI50 was less than 500 nM.

As for `C#Cc1c(F)ccc2cc(O)cc(-c3nc(OC)c4c(N5CC6CCC(C5)N6)nc(OC[C@]56CCCN5[C@H](COC(=O)N(C)C)CC6)nc4c3F)c12` [Compound 178], the GI50 is less than 500 nM.

As to `Oc1cc(-c2nc(C(F)F)c3c(N4CC5CCC(C4)N5)nc(OC[C@@]45CCCN4C[C@H](F)C5)nc3c2F)c2c(Cl)c(F)ccc2c1` [Compound 167], the GI50 is less than 500 nM.

For the compound `C#Cc1c(F)ccc2cc(O)cc(-c3nc(OC)c4c(N5CC6CCC(C5)N6)nc(OC[C@@]56CCCN5[C@H](COC(=O)N(C)C)CC6)nc4c3F)c12` [Compound 175], the GI50 is less than 500 nM.

As to `C#Cc1c(F)ccc2cc(O)cc(-c3nc(OCC(F)F)c4c(N5CC6CCC(C5)N6)nc(OC[C@@]56CCCN5C[C@H](F)C6)nc4c3F)c12` [Compound 180], the GI50 is less than 500 nM.

Turning to `C#Cc1c(F)ccc2cc(O)cc(-c3nc(OCC)c4c(N5C[C@H]6CC[C@@H](C5)[C@@H]6O)nc(OC[C@@]56CCCN5C[C@H](F)C6)nc4c3F)c12` [Compound 212], the GI50 is less than 500 nM.

As for `C#Cc1c(F)ccc2cc(O)cc(-c3nc(OC(C)C)c4c(N5CCNCC(F)(F)C5)nc(OC[C@@]56CCCN5C[C@H](F)C6)nc4c3F)c12` [Compound 219], the GI50 is less than 500 nM.

With `CNC(=O)COc1nc(-c2cc(O)cc3ccccc23)c(F)c2nc(OC[C@@]34CCCN3C[C@H](F)C4)nc(N3CC4CCC(C3)N4)c12` [Compound 145], the GI50 lay within 500 to 5000 nM.

`C#Cc1c(F)ccc2cccc(-c3nc(OC(C)C)c4c(N5CC6CCC(C5)N6)nc(OC[C@]56CCCN5[C@@H](CO)CC6)nc4c3F)c12` [Compound 238]: the GI50 was less than 500 nM.

Consider `C#Cc1c(F)ccc2cc(N)cc(-c3nc(OC(C)C)c4c(N5CC6CCC(C5)N6)nc(OC[C@@]56CCCN5C[C@H](F)C6)nc4c3F)c12` [Compound 200], for which the GI50 is less than 500 nM.

In the case of `CCOc1nc(-c2cc(N)cc(F)c2C(F)(F)F)c(F)c2nc(OC[C@@]34CCCN3C[C@H](F)C4)nc(N3CC4CCC(C3)N4)c12` [Compound 213], the GI50 is less than 500 nM.

`C#Cc1c(F)ccc2cc(N)cc(-c3nc(O)c4c(N5CC6CCC(C5)N6)nc(OC[C@@]56CCCN5C[C@H](F)C6)nc4c3F)c12` [Compound 201]: the GI50 is 500 to 5000 nM.

Consider `C#Cc1c(F)ccc2cc(O)cc(-c3nc(OC)c4c(N5CC6CCC(C5)N6)nc(OC[C@@]56CCCN5[C@@H](COC(=O)N(C)C)CC6)nc4c3F)c12` [Compound 177], for which the GI50 is less than 500 nM.

Consider `C#Cc1c(F)ccc2cc(O)cc(-c3nc(OC(C)C)c4c(N5CC6CCC(C5)N6)nc(OCC5(CN6CCN(C(C)=O)CC6)CC5)nc4c3F)c12` [Compound 231], for which the GI50 was less than 500 nM.

With `C#Cc1c(F)ccc2cc(O)cc(-c3nc(OC(C)C)c4c(N5CCNC(CF)C5)nc(OC[C@@]56CCCN5C[C@H](F)C6)nc4c3F)c12` (stereo partly drawn) [Compound 242], the GI50 was less than 500 nM.

Take `C#Cc1c(F)ccc2cc(O)cc(-c3nc(OC(C)C)c4c(N5CC6CCC(C5)N6)nc(OC[C@@H]5C[C@@H](OC(=O)N(C)C)CN5C)nc4c3F)c12` [Compound 235]: the GI50 was less than 500 nM.

In the case of `C#Cc1c(F)ccc2cc(O)cc(-c3nc(OCC)c4c(N5CCNC6(CCC6)C5)nc(OC[C@@]56CCCN5C[C@H](F)C6)nc4c3F)c12` [Compound 172], the GI50 is less than 500 nM.

`C#Cc1c(F)ccc2cccc(-c3nc(OC)c4c(N5CC6CCC(C5)N6)nc(OC[C@]56CCCN5[C@@H](COC(=O)N(C)C)CC6)nc4c3F)c12` [Compound 216]: the GI50 was less than 500 nM.

In the case of `C#Cc1c(F)ccc2cc(O)cc(-c3nc(OC(C)C)c4c(N5CC6CCC(C5)N6)nc(N)nc4c3F)c12` [Compound 188], the GI50 is 500 to 5000 nM.

For the compound `C#Cc1c(F)ccc2cc(O)cc(-c3nc(OC)c4c(N5CC6CCC(C5)N6)ncnc4c3F)c12` [Compound 161], the GI50 was less than 500 nM.

On to `C#Cc1c(F)ccc2cc(O)cc(-c3nc(OC)c4c(N5CC6CCC(C5)N6)nc(OC)nc4c3F)c12` [Compound 162], for which the GI50 is less than 500 nM.

`C#Cc1c(F)ccc2cc(O)cc(-c3nc(OC)c4c(N5CC6CCC(C5)N6)nc(OC[C@]56CCCN5[C@@H](COC(=O)N(C)CCCCCCCCCCCCCCCC)CC6)nc4c3F)c12` [Compound 243]: the GI50 was less than 500 nM.

As to `C#Cc1c(F)ccc2cc(O)cc(-c3nc(OC(C)C)c4c(N5CC6CCC(C5)N6)nc(C(F)F)nc4c3F)c12` [Compound 190], the GI50 is less than 500 nM.

With `C#Cc1c(F)ccc2cccc(-c3nc(OC)c4c(N5CCNCC(F)(F)C5)nc(OC[C@]56CCCN5[C@@H](COC(=O)N(C)C)CC6)nc4c3F)c12` [Compound 247], the GI50 lay within 500 to 5000 nM.

Consider `CCOc1nc(-c2cc(O)cc(F)c2C(F)(F)F)c(F)c2nc(OC[C@@]34CCCN3C[C@H](F)C4)nc(N3CC4CCC(C3)N4)c12` [Compound 214], for which the GI50 was in the range of 500 to 5000 nM.

As for `C#Cc1c(F)ccc2cc(O)cc(-c3nc(OC(C)C)c4c(N5CC6CCC(C5)N6)nc(OCC5(CN6CCOCC6)CC5)nc4c3F)c12` [Compound 229], the GI50 was less than 500 nM.

For the compound `C#Cc1c(F)ccc2cccc(-c3nc(OC(C)C)c4c(N5CC6CCC(C5)N6)nc(OC[C@]56CCCN5[C@@H](COC(=O)N5CCOCC5)CC6)nc4c3F)c12` [Compound 245], the GI50 is less than 500 nM.

For `C#Cc1c(F)ccc2cccc(-c3nc(OCC)c4c(N5CC6CCC(C5)N6)nc(OC[C@]56CCCN5[C@@H](COC(=O)N(C)C)CC6)nc4c3F)c12` [Compound 236], the GI50 was less than 500 nM.

For `C#Cc1c(F)ccc2cc(O)cc(-c3nc(OC(C)C)c4c(N5CC6CCC(C5)N6)nc(OC[C@@H]5C[C@H](F)CN5C)nc4c3F)c12` [Compound 204], the GI50 is less than 500 nM.

`C#Cc1c(F)ccc2cc(O)cc(-c3nc(OC(C)C)c4c(N5CCNC(C(F)F)C5)nc(OC[C@@]56CCCN5C[C@H](F)C6)nc4c3F)c12` (stereo partly drawn) [Compound 220]: the GI50 was less than 500 nM.

`C#Cc1c(F)ccc2cc(O)cc(-c3nc(OC(C)C)c4c(N5CC6CCC(C5)N6)nc(N(C)C)nc4c3F)c12` [Compound 189]: the GI50 is 500 to 5000 nM.

As to `C#Cc1c(F)ccc2cccc(-c3nc(OCC)c4c(N5CC6CCC(C5)N6)nc(OC[C@@]56CCCN5C[C@H](F)C6)nc4c3F)c12` [Compound 168], the GI50 is less than 500 nM.

As to `C#Cc1c(F)ccc2cccc(-c3nc(OC(C)C)c4c(N5CC6CCC(C5)N6)nc(OC[C@@H]5C[C@@H](OC(=O)N(C)CCCCCCCCCCCCCCCC)CN5C)nc4c3F)c12` [Compound 246], the GI50 was in the range of 500 to 5000 nM.

`C#Cc1c(F)ccc2cc(N)cc(-c3nc(O)c4c(N5CC6CCC(C5)N6)nc(OC[C@@H]5C[C@@H](F)CN5C)nc4c3F)c12` [Compound 210]: the GI50 was 500 to 5000 nM.

Consider `C#Cc1c(F)ccc2cc(O)cc(-c3nc(O)c4c(N5CC6CCC(C5)N6)nc(OCCOC)nc4c3F)c12` [Compound 193], for which the GI50 was less than 500 nM.

Turning to `C#Cc1c(F)ccc2cc(O)cc(-c3nc(OC(C)C)c4c(N5CC6CCC(C5)N6)nc(OCCN(C)C)nc4c3F)c12` [Compound 194], the GI50 is less than 500 nM.

As for `C#Cc1c(F)ccc2cc(O)cc(-c3nc(OC(C)C)c4c(N5CC6CCC(C5)N6)nc(OC[C@]56CCCN5[C@@H](CO)CC6)nc4c3F)c12` [Compound 227], the GI50 was less than 500 nM.

On to `CCc1cccc2cc(N)cc(-c3nc(OC)c4c(N5CC6CCC(C5)N6)nc(OC[C@@]56CCCN5C[C@H](F)C6)nc4c3F)c12` [Compound 157], for which the GI50 was less than 500 nM.

With `C#Cc1c(F)ccc2cc(O)cc(-c3nc(OCC(F)(F)F)c4c(N5CC6CCC(C5)N6)ncnc4c3F)c12` [Compound 153], the GI50 fell in the range of 500 to 5000 nM.

For the compound `C#Cc1c(F)ccc2cc(N)cc(-c3nc(OC)c4c(N5CC6CCC(C5)N6)nc(OC[C@@H]5C[C@H](F)CN5C)nc4c3F)c12` [Compound 209], the GI50 is less than 500 nM.

(Values after patent US20230357233A1, “HETEROARYL COMPOUNDS, PREPARATION METHODS AND USES THEREOF” (INVENTISBIO CO., LTD., priority 2020, published 2023).)
